Results on five molecules are retold here after ChEMBL document CHEMBL1806455, “Synthesis, activity and pharmacokinetics of novel antibacterial 15-membered ring macrolones” (Eur J Med Chem, 2011).

≈ marks a conversion by molar mass, not a printed value.

In series [1] the test system is Moraxella catarrhalis. Briefly: Antibacterial activity against Moraxella catarrhalis ATCC 23246 by broth microdilution method. It is filed as functional.
For series [2], the system named is Staphylococcus aureus. The series can be described thus: Antibacterial activity against inducible macrolide-lincosamide-streptogramin B resistant Staphylococcus aureus 90256 by broth microdilution method. The series is classed as functional. (In general: Dilution methods test growth across graded concentrations, often in twofold steps.)
Series [3] deals with Streptococcus pyogenes. Briefly: Antibacterial activity against inducible macrolide-lincosamide-streptogramin B resistant Streptococcus pyogenes Finland 11 by broth microdilution method. The series is classed as functional.
Series [4] relates to Staphylococcus aureus. Briefly: Antibacterial activity against erythromycin-sensitive Staphylococcus aureus ATCC 13709 by broth microdilution method. It is filed as functional.
The subject of series [5] is Streptococcus pyogenes. The series can be described thus: Antibacterial activity against efflux-mediated macrolide-resistance Streptococcus pyogenes 2 Finland by broth microdilution method. It is filed as functional.
In series [6] the test system is Staphylococcus aureus. Briefly: Antibacterial activity against efflux-mediated macrolide-resistant Staphylococcus aureus PK1 by broth microdilution method. It is filed as functional.
Series [7] concerns Streptococcus pyogenes. Briefly: Antibacterial activity against erythromycin-sensitive Streptococcus pyogenes 3565 by broth microdilution method. It is filed as functional.
Series [8] relates to Staphylococcus aureus. Briefly: Antibacterial activity against constitutive macrolide, lincosamide, streptogramin-resistant Staphylococcus aureus PK2 by broth microdilution method. It is filed as functional.
Series [9] deals with Streptococcus pneumoniae. Briefly: Antibacterial activity against efflux-mediated macrolide-resistant Streptococcus pneumoniae Ci137 by broth microdilution method. The series is classed as functional.
Series [10] deals with Streptococcus pneumoniae. The series can be described thus: Antibacterial activity against constitutive macrolide, lincosamide, streptogramin-resistant Streptococcus pneumoniae 58 spain by broth microdilution method. It is filed as functional.
The test system of series [11] is Streptococcus pneumoniae. Briefly: Antibacterial activity against erythromycin-sensitive Streptococcus pneumoniae SP030 by broth microdilution method. It is filed as functional.
Series [12] relates to Streptococcus pneumoniae. The series can be described thus: Antibacterial activity against inducible macrolide-resistant, constitutive lincosamide, streptogramin-resistant Streptococcus pneumoniae 134 GR M by broth microdilution method. It is filed as functional.
Series [13] deals with Haemophilus influenzae. Briefly: Antibacterial activity against Haemophilus influenzae ATCC 49247 by broth microdilution method. It is filed as functional.
For series [14], the system named is Streptococcus pyogenes. Briefly: Antibacterial activity against macrolide, lincosamide, streptogramin-resistant Streptococcus pyogenes 166 GR-Micro by broth microdilution method. The series is classed as functional.
For series [15], the system named is Rattus norvegicus. The series can be described thus: Liver blood flow in Han Wistar rat at 10 mg/kg, iv and 50 mg/kg, po. Particulars: in vivo. The series is classed as ADME, organism-based.

As to `CC[C@H]1OC(=O)[C@H](C)[C@@H](O[C@H]2C[C@@](C)(OC)[C@@H](OC(=O)CCOCCNc3cc4c(=O)c(C(=O)O)cn(C5CC5)c4cc3Cl)[C@H](C)O2)[C@H](C)[C@@H](O[C@@H]2O[C@H](C)C[C@H](N(C)C)[C@H]2O)[C@](C)(O)C[C@@H](C)CN(C)[C@H](C)[C@@H](O)[C@]1(C)O`, the MIC was 0.5 µg/mL (≈ 0.444 µM) in series [1]; 0.25 µg/mL (≈ 0.222 µM) in series [2]; at most 0.125 µg/mL in series [3]; at most 0.125 µg/mL in series [4]; at most 0.125 µg/mL in series [5]; 0.25 µg/mL (≈ 0.222 µM) in series [6]. Also, the MIC was at most 0.125 µg/mL in series [7]; 32 µg/mL (≈ 28.4 µM) in series [8]; at most 0.125 µg/mL in [9]; at most 0.125 µg/mL in [10]; at most 0.125 µg/mL in series [11]; at most 0.125 µg/mL in [12]. Further, the MIC in [13] was 0.5 µg/mL (≈ 0.444 µM); in series [14], at most 0.125 µg/mL. For the same molecule, in series [15], the LBF came out at 26%.
Take `CC[C@H]1OC(=O)[C@H](C)[C@@H](O[C@H]2C[C@@](C)(OC)[C@@H](OC(=O)CCOCCOc3cc4c(=O)c(C(=O)O)cn(C5CC5)c4cc3Cl)[C@H](C)O2)[C@H](C)[C@@H](O[C@@H]2O[C@H](C)C[C@H](N(C)C)[C@H]2O)[C@](C)(O)C[C@@H](C)CN(C)[C@H](C)[C@@H](O)[C@]1(C)O`: the MIC in series [1] was 1 µg/mL (≈ 0.887 µM); in [2] it was 0.5 µg/mL (≈ 0.444 µM); in [3], at most 0.125 µg/mL; in series [4], 0.25 µg/mL (≈ 0.222 µM); in series [5], at most 0.125 µg/mL; in series [6] it was 0.5 µg/mL (≈ 0.444 µM). Moreover, the MIC in [7] is at most 0.125 µg/mL; in series [8], above 64 µg/mL; in series [9] it was at most 0.125 µg/mL; in [10] it was 0.5 µg/mL (≈ 0.444 µM); in series [11], at most 0.125 µg/mL; in series [12], 0.25 µg/mL (≈ 0.222 µM). The figures for the MIC in series [13] and in series [14] were 1 µg/mL (≈ 0.887 µM) and 0.25 µg/mL (≈ 0.222 µM), respectively.
Regarding `CC[C@H]1OC(=O)[C@H](C)[C@@H](O[C@H]2C[C@@](C)(OC)[C@@H](OC(=O)CCOCCOCCNc3cc4c(=O)c(C(=O)O)cn(C5CC5)c4cc3Cl)[C@H](C)O2)[C@H](C)[C@@H](O[C@@H]2O[C@H](C)C[C@H](N(C)C)[C@H]2O)[C@](C)(O)C[C@@H](C)CN(C)[C@H](C)[C@@H](O)[C@]1(C)O`, the MIC in series [1] was at most 0.125 µg/mL; in series [2], 0.25 µg/mL (≈ 0.214 µM); in [3], at most 0.125 µg/mL; in series [4] it was 0.25 µg/mL (≈ 0.214 µM); in series [5], at most 0.125 µg/mL; in series [6] it was 0.25 µg/mL (≈ 0.214 µM). Further, the MIC was at most 0.125 µg/mL in [7]; 16 µg/mL (≈ 13.7 µM) in series [8]; at most 0.125 µg/mL in series [9]; at most 0.125 µg/mL in [10]; at most 0.125 µg/mL in [11]; at most 0.125 µg/mL in series [12]. Further, the MIC in [13] was 0.5 µg/mL (≈ 0.427 µM); in series [14] it was at most 0.125 µg/mL. The molecule further had an LBF in series [15] of 13%.
Regarding `CC[C@H]1OC(=O)[C@H](C)[C@@H](O[C@H]2C[C@@](C)(OC)[C@@H](O)[C@H](C)O2)[C@H](C)[C@@H](O[C@@H]2O[C@H](C)C[C@H](N(C)C)[C@H]2O)[C@](C)(O)C[C@@H](C)CN(C)[C@H](C)[C@@H](O)[C@]1(C)O` [AZITHROMYCIN], the MIC in series [1] was at most 0.125 µg/mL; in [2], above 64 µg/mL; in series [3], 16 µg/mL (≈ 21.4 µM); in series [4], 0.5 µg/mL (≈ 0.668 µM); in [5], 8 µg/mL (≈ 10.7 µM); in series [6] it was 32 µg/mL (≈ 42.7 µM). In addition, the MIC in series [7] is at most 0.125 µg/mL; in [8] it was above 64 µg/mL; in series [9], 8 µg/mL (≈ 10.7 µM); in [10], above 64 µg/mL; in series [11] it was at most 0.125 µg/mL; in [12], above 64 µg/mL. For the same molecule, the MIC in series [13] is 1 µg/mL (≈ 1.34 µM); in series [14], above 64 µg/mL.
On to `CC[C@H]1OC(=O)[C@H](C)C(=O)[C@H](C)[C@@H](O[C@@H]2O[C@H](C)C[C@H](N(C)C)[C@H]2O)[C@](C)(OC)C[C@@H](C)C(=O)[C@H](C)[C@H]2N(CCCCn3cnc(-c4cccnc4)c3)C(=O)O[C@]12C` [TELITHROMYCIN], for which the MIC was at most 0.125 µg/mL in [1]; at most 0.125 µg/mL in [2]; 0.06 µg/mL (≈ 0.0739 µM) in [3]; 0.125 µg/mL (≈ 0.154 µM) in series [4]; 0.5 µg/mL (≈ 0.616 µM) in [5]; at most 0.125 µg/mL in [6]. Further, the MIC in [7] was at most 0.125 µg/mL; in [8], above 64 µg/mL; in series [9], 0.25 µg/mL (≈ 0.308 µM); in [10], 0.25 µg/mL (≈ 0.308 µM); in series [11], at most 0.125 µg/mL; in series [12], 0.25 µg/mL (≈ 0.308 µM). In addition, the MIC in series [13] amounted to 2 µg/mL (≈ 2.46 µM); in series [14] it was 16 µg/mL (≈ 19.7 µM).
